Test results as given in US20160022751A1, “NOVEL COMPOSITION FOR TREATING ALZHEIMER'S DISEASE AND IMPROVING COGNITIVE FUNCTION OF ALZHEIMER'S PATIENTS” (GANGNEUNG-WONJU NATIONAL UNIVERSITY INDUSTRY ACADEMY …, priority 2014, published 2016).

Assays:
Assay type in all cases: cell-based, mouse
[1] = test system: acetylcholine; assay: Acetylcholine content in culture medium of N2a cells (assay kit); conditions: culture medium of N2a cells, 1, 2.5 and 5 μg/ml, 48 h (FIG. 7F)
Method: Further, the present inventor measured contents of acetylcholine in culture medium of N2a cells treated with Rd and/or […] (1, 2.5 and 5 μg/ml) for 48 h using a commercial acetylcholine assay kit (Cell Biolabs, USA), based on the enzyme driven reaction that will detect acetylcholine via acetylcholine esterase enzyme and choline oxidase according to the manufacturer's instruction (FIG. 7F).

[2] = test system: p75; assay: p75 protein immunocytochemistry in N2a cells; conditions: compared with NGF (FIG. 9B)
Method: Followed by the RT-PCR analysis, the present inventor investigated whether ginsenosides Re and Rd induce the expression of MAP-2 and p75 and the differentiation of neurons actually, via immunocytochemistry and morphological analysis using optical microscopic observation.
Specifically, Cultured N2a cells were fixed in 4% paraformaldehyde (in PBS) for 15 min, washed twice with PBS supplemented with 100 mM glycine for 5 min, and incubated with permeabilization buffer consisting of 0.1% Triton X-100 (Sigma-Aldrich, USA) in PBS for 30 min at room temperature. Blocking was performed with 1% bovine serum albumin (BSA, Sigma-Aldrich, USA) for 30 min at room temperature. Then Microtubule-Associated Protein-2 (MAP-2) or VAChT mouse monoclonal antibody 1:200 (Santa Cruz Biotechnology, USA) was added to 1% BSA in PBS with Tween 20 (PBST) and incubated for 2 h at room temperature. Cells were then washed three times with PBS before fluorescein isothiocyanate (FITC)-conjugated anti-mouse immunoglobulin G (IgG) 1:200 (Cell Signaling Technology, USA) was added to 1% BSA for 1 h at room temperature. The cells were rinsed and counterstained with 4,6-diamidino-2-phenylindole (DAPI, Sigma-Aldrich) for 10 min, followed by two PBS washes. […]

[3] = test system: Akt; assay: Akt phosphorylation in N2a cells (western blot); conditions: compared with NGF (FIG. 10)
Text: The cholinergic marker ChAT and VAChT are known activate the ERK and Akt lower level path for cholinergic gene expression (Williams et al., Neurosci. Lett., 413: 110-114, 2007; Madziar et al., J. Neurochem., 107: 1284-1293, 2007) by controlling the NGF-TrkA signaling pathway. Thus, the present inventor investigated whether ginsenosides Rd and Re regulate activity of ERK and Akt in N2a cells using through western blot analysis. Specifically, N2a cells were lysed in 1% radioimmunoprecipitation assay (RIPA) buffer containing protease and phosphatase inhibitors (Roche, Mannheim, Germany) and whole cell lysates were separated by 10% sodium dodecyl sulfate polyacrylamide gel electrophoresis (SDS-PAGE). After electrophoresis, proteins were transferred onto polyvinylidene fluoride (PVDF) membranes and the membranes were blocked with 5% skim milk in Tris-buffered saline solution containing 0.1% Tween-20. The membrane was then immunoblotted with primary antibodies, anti-phospho-Akt, anti-phospho-extracellular signal-regulated protein kinase (ERK), anti-ChAT and anti-f3-actin (Santa Cruz Biotechnology, Santa Cruz, USA), and this was followed by incubation with horseradish peroxidase-conjugated anti-rabbit or anti-mouse secondary antibodies (Stressgen, USA). Blots were developed using an enhanced chemiluminescence (ECL) solution (Thermo, USA).

[4] = test system: ChAT; assay: ChAT expression in N2a cells with or without Trk inhibitor K252a; conditions: K252a 50 nM, ginsenoside 5 μg/mL, 48 h (FIG. 12)
Text: Since NGF-Trk signal pathway upregulates ChAT and VAChT, it is important to know whether ginsenosides Rd and Re regulate Trk activity directly or at least indirectly. Therefore, the inventor investigated whether the expression of ChAT and VAChT was blocked by treating K252a, an inhibitor against protein kinase C (PKC) and Trk together with ginsenoside Rd or Re, in order to determine more closely whether the expression of cholinergic surface markers and the differentiation of neurons by the treatment of ginsenosides Rd and Re are caused whereby they act NGF-TrkA pathway directly. Particularly, N2a cells were treated with or without K252a (50 nM) in the presence of NGF (100 ng/mL), Re (5 μg/mL) or Rd (5 μg/mL) for 48 h. Total RNA and protein lysates were isolated as described in the Example 4-1 (FIG. 12). […] In addition, the present inventor performed quantitative RT-PCR in order to verify whether the treatment of ginsenosides Rd and Re affect the expression of NGF and NGFR in N2a cells.

| Compound | acetylcholine production [1] | p75 protein expression [2] | Akt activation (phosphorylation) [3] | ChAT expression on co-treatment with K252a compared with single treatment [4] |
| --- | --- | --- | --- | --- |
| CC(C)=CCC[C@](C)(O[C@@H]1O[C@H](CO)[C@@H](O)[C@H](O)[C@H]1O)[C@H]1CC[C@]2(C)[C@@H]1[C@H](O)C[C@@H]1[C@@]3(C)CC[C@H](O)C(C)(C)[C@@H]3[C@@H](O[C@@H]3O[C@H](CO)[C@@H](O)[C@H](O)[C@H]3O[C@@H]3O[C@@H](C)[C@H](O)[C@@H](O)[C@H]3O)C[C@]12C [ginsenoside Re] | increased significantly | switched to p75-positive N2a cells to the same or more extent as NGF | could activate ERK and Akt with phosphorylation as much as NGF | inhibited |
| CC(C)=CCC[C@](C)(O[C@@H]1O[C@H](CO)[C@@H](O)[C@H](O)[C@H]1O)[C@H]1CC[C@]2(C)[C@@H]1[C@H](O)C[C@@H]1[C@@]3(C)CC[C@H](O[C@@H]4O[C@H](CO)[C@@H](O)[C@H](O)[C@H]4O[C@@H]4O[C@H](CO)[C@@H](O)[C@H](O)[C@H]4O)C(C)(C)[C@@H]3CC[C@]12C [ginsenoside Rd] | increased significantly | switched to p75-positive N2a cells to the same or more extent as NGF | could activate ERK and Akt with phosphorylation as much as NGF | inhibited |
